Each block holds one compound with its values, some of them ahead of it.
What was measured:
Assay type in all cases: physicochemical
[1] = Separation of binary mixture of rare-earth metals by precipitation using L6 (Example 9); details: supernatant; for [mM] M1: with Nd
[2] = Use of additives to improve separation of Nd/Dy mixture by precipitation with L5 (Example 18); details: 11 mM L5
Experimental: Stock solutions were pipetted into plastic 1×1 cm cuvettes to prepare reaction mixtures with concentrations as follows: • 1. […] 5 mM NdCl3 • 3. 5 mM DyCl3 • 4. 500 mM MOPS pH=7 • 5. the additive of interest, in a variable concentration; if possible, stock solutions were prepared from Na^+ salt forms of the compound; if not, the stock solutions were titrated by NaOH/HCl to pH=7 prior to addition (see Table 12 for additives and concentrations)
These aqueous reaction mixtures, each prepared to a total volume of 2.0 mL with the addition of water as necessary, were mixed by the use of a PTFE-coated stir bar on a magnetic stirrer. The cuvettes were sealed with transparent tape to prevent evaporation overnight. The reaction mixtures were stirred for 18 hours, at which point 500 μL aliquots of each reaction mixture were transferred into plastic 2 mL Eppendorf tubes and centrifuged. The supernatants were carefully pipetted out and transferred to a new set of tubes. The precipitate was dissolved by addition of 500 μL 1M HCl. The absolute concentration of Nd and Dy in each supernatant and precipitate was determined by ICP-OES.

[3] = Removal of additive from remaining solution after precipitation by ultrafiltration (Example 25); details: initial [additive] 76 mM

- [mM] M1 ([1]; M1=Ce): 0.596 mM
- [mM] Nd ([1]; M1=Ce): 0.556 mM
- [mM] M1 ([1]; M1=Dy): 0.459 mM
- [mM] Nd ([1]; M1=Dy): 0.135 mM
- [mM] M1 ([1]; M1=Er): 2.027 mM
- [mM] Nd ([1]; M1=Er): 0.702 mM
- [mM] M1 ([1]; M1=Eu): 0.711 mM
- [mM] Nd ([1]; M1=Eu): 0.566 mM
- [mM] M1 ([1]; M1=Gd): 0.195 mM
- [mM] Nd ([1]; M1=Gd): 0.166 mM
- [mM] M1 ([1]; M1=Ho): 1.943 mM
- [mM] Nd ([1]; M1=Ho): 0.618 mM
- [mM] M1 ([1]; M1=La): 0.620 mM
- [mM] Nd ([1]; M1=La): 0.606 mM
- [mM] M1 ([1]; M1=Lu): 3.231 mM
- [mM] Nd ([1]; M1=Lu): 0.841 mM
- [mM] M1 ([1]; M1=Nd): 0.496 mM
- [mM] Nd ([1]; M1=Nd): 0.496 mM
- [mM] M1 ([1]; M1=Pr): 0.524 mM
- [mM] Nd ([1]; M1=Pr): 0.559 mM
- [mM] M1 ([1]; M1=Sc): 2.414 mM
- [mM] Nd ([1]; M1=Sc): 0.594 mM
- [mM] M1 ([1]; M1=Sm): 0.541 mM
- [mM] Nd ([1]; M1=Sm): 0.512 mM
- [mM] M1 ([1]; M1=Tb): 0.428 mM
- [mM] Nd ([1]; M1=Tb): 0.178 mM
- [mM] M1 ([1]; M1=Tm): 2.914 mM
- [mM] Nd ([1]; M1=Tm): 0.748 mM
- [mM] M1 ([1]; M1=Y): 1.592 mM
- [mM] Nd ([1]; M1=Y): 1.463 mM
- [mM] M1 ([1]; M1=Yb): 2.243 mM
- [mM] Nd ([1]; M1=Yb): 0.495 mM
SMILES: O=C(O)CN1CCN(CC(=O)O)CCN(Cc2ccc(-c3ccccc3)cc2)CCN(CC(=O)O)CC1 [L6, 2,2′,2″-(10-([1,1′-biphenyl]-4-ylmethyl)-1,4,7,10-tetraazacyclododecane-1,4,7-triyl)triacetic acid]

- Precipitate concentration [mM] Dy ([2]; additive 50 mM): 2.43 mM
- Precipitate concentration [mM] Nd ([2]; additive 50 mM): 4.97 mM
- Supernatant concentration [mM] Dy ([2]; additive 50 mM): 3.05 mM
- Supernatant concentration [mM] Nd ([2]; additive 50 mM): 0.33 mM
- Precipitate concentration [mM] Dy ([2]; additive 100 mM): 1.74 mM
- Precipitate concentration [mM] Nd ([2]; additive 100 mM): 4.85 mM
- Supernatant concentration [mM] Dy ([2]; additive 100 mM): 3.74 mM
- Supernatant concentration [mM] Nd ([2]; additive 100 mM): 0.30 mM
- Precipitate concentration [mM] Dy ([2]; additive 250 mM): 1.05 mM
- Precipitate concentration [mM] Nd ([2]; additive 250 mM): 4.04 mM
- Supernatant concentration [mM] Dy ([2]; additive 250 mM): 4.37 mM
- Supernatant concentration [mM] Nd ([2]; additive 250 mM): 1.17 mM
- Precipitate concentration [mM] Dy ([2]; additive 500 mM): 0.49 mM
- Precipitate concentration [mM] Nd ([2]; additive 500 mM): 0.52 mM
- Supernatant concentration [mM] Dy ([2]; additive 500 mM): 4.69 mM
- Supernatant concentration [mM] Nd ([2]; additive 500 mM): 4.62 mM
- % of initial [additive] in filtrate [3]: 83%
SMILES: CC(=O)O [acetate]

SMILES: O=C(O)c1ccccc1 [benzoic acid]
- Precipitate concentration [mM] Dy ([2]; additive 20 mM): 3.83 mM
- Precipitate concentration [mM] Nd ([2]; additive 20 mM): 4.94 mM
- Supernatant concentration [mM] Dy ([2]; additive 20 mM): 1.09 mM
- Supernatant concentration [mM] Nd ([2]; additive 20 mM): 0.13 mM
- Precipitate concentration [mM] Dy ([2]; additive 50 mM): 1.81 mM
- Precipitate concentration [mM] Nd ([2]; additive 50 mM): 4.66 mM
- Supernatant concentration [mM] Dy ([2]; additive 50 mM): 2.69 mM
- Supernatant concentration [mM] Nd ([2]; additive 50 mM): 0.10 mM
- Precipitate concentration [mM] Dy ([2]; additive 100 mM): 0.97 mM
- Precipitate concentration [mM] Nd ([2]; additive 100 mM): 4.60 mM
- Supernatant concentration [mM] Dy ([2]; additive 100 mM): 4.03 mM
- Supernatant concentration [mM] Nd ([2]; additive 100 mM): 0.49 mM
- Precipitate concentration [mM] Dy ([2]; additive 150 mM): 0.68 mM
- Precipitate concentration [mM] Nd ([2]; additive 150 mM): 3.96 mM
- Supernatant concentration [mM] Dy ([2]; additive 150 mM): 4.34 mM
- Supernatant concentration [mM] Nd ([2]; additive 150 mM): 1.03 mM
- Precipitate concentration [mM] Dy ([2]; additive 200 mM): 0.53 mM
- Precipitate concentration [mM] Nd ([2]; additive 200 mM): 1.65 mM
- Supernatant concentration [mM] Dy ([2]; additive 200 mM): 4.20 mM
- Supernatant concentration [mM] Nd ([2]; additive 200 mM): 2.89 mM
- Precipitate concentration [mM] Dy ([2]; additive 250 mM): 0 mM
- Precipitate concentration [mM] Nd ([2]; additive 250 mM): 0 mM
- Supernatant concentration [mM] Dy ([2]; additive 250 mM): 5 mM
- Supernatant concentration [mM] Nd ([2]; additive 250 mM): 5 mM
- % of initial [additive] in filtrate [3]: 43%
